According to ChEMBL document CHEMBL1201862, “PubChem BioAssay data set” (2004):
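Test compounds were applied to cells in 96-well plates for 48 hours at 5 doses. At the GI50, growth is halved.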 Active and inactive are the calls of the source. Rule as the data show it: active = GI50 up to about 1.1 µM and inactive = higher.

Tests used:
Experiment in all cases: DTP human tumour cell line panel, 48 h
NCI-H522 = tested on: NCI-H522
K562 = tested on: K562
UACC-257 = tested on: UACC-257
ACHN = tested on: ACHN
MCF7 = tested on: MCF7
U-251 = tested on: U-251
Hs-578T = tested on: Hs-578T
UO-31 = tested on: UO-31
EKVX = tested on: EKVX
CCRF-CEM = tested on: CCRF-CEM
SF-268 = tested on: SF-268
OVCAR-5 = tested on: OVCAR-5
OVCAR-4 = tested on: OVCAR-4
SK-OV-3 = tested on: SK-OV-3
SK-MEL-2 = tested on: SK-MEL-2
MDA-MB-231 = tested on: MDA-MB-231
HT-29 = tested on: HT-29
PC-3 = tested on: PC-3
SR = tested on: SR
DU-145 = tested on: DU-145
SF-295 = tested on: SF-295
HCT-116 = tested on: HCT-116
SF-539 = tested on: SF-539
MDA-N = tested on: MDA-N
SN12C = tested on: SN12C
NCI-H460 = tested on: NCI-H460
NCI/ADR-RES = tested on: NCI/ADR-RES
HOP-62 = tested on: HOP-62
A549 = tested on: A549
OVCAR-3 = tested on: OVCAR-3
Malme-3M = tested on: Malme-3M
MDA-MB-435 = tested on: MDA-MB-435
CAKI-1 = tested on: CAKI-1
T47D = tested on: T47D
KM12 = tested on: KM12
SW-620 = tested on: SW-620
786-0 = tested on: 786-0
SK-MEL-28 = tested on: SK-MEL-28
NCI-H23 = tested on: NCI-H23
OVCAR-8 = tested on: OVCAR-8
UACC-62 = tested on: UACC-62
SNB-75 = tested on: SNB-75
COLO 205 = tested on: COLO 205
TK-10 = tested on: TK-10
M14 = tested on: M14
MOLT-4 = tested on: MOLT-4
SK-MEL-5 = tested on: SK-MEL-5
RPMI-8226 = tested on: RPMI-8226
HOP-92 = tested on: HOP-92
HL-60 = tested on: HL-60
BT-549 = tested on: BT-549
SNB-19 = tested on: SNB-19
RXF 393 = tested on: RXF 393
HCC 2998 = tested on: HCC 2998
HCT-15 = tested on: HCT-15
IGROV-1 = tested on: IGROV-1
LOX IMVI = tested on: LOX IMVI
NCI-H226 = tested on: NCI-H226
A498 = tested on: A498

O=c1oc2ccc(Cl)cc2cc1C1=CSC2=NCCN12
GI50 (NCI-H522): 18.7 µM (inactive) | GI50 (K562): 18.2 µM (inactive) | GI50 (UACC-257): 37.7 µM (inactive) | GI50 (ACHN): 37.7 µM (inactive) | GI50 (MCF7): 19.6 µM (inactive) | GI50 (U-251): 23.2 µM (inactive) | GI50 (Hs-578T): 31.7 µM (inactive) | GI50 (UO-31): 20.7 µM (inactive) | GI50 (EKVX): 20.6 µM (inactive) | GI50 (CCRF-CEM): 20.4 µM (inactive) | GI50 (SF-268): 17.8 µM (inactive) | GI50 (OVCAR-5): 50.5 µM (inactive) | GI50 (OVCAR-4): 23.6 µM (inactive) | GI50 (SK-OV-3): 38.1 µM (inactive) | GI50 (SK-MEL-2): 23.3 µM (inactive) | GI50 (MDA-MB-231): 20.4 µM (inactive) | GI50 (HT-29): 18.8 µM (inactive) | GI50 (PC-3): 21.7 µM (inactive) | GI50 (SR): 17.1 µM (inactive) | GI50 (DU-145): 19.3 µM (inactive) | GI50 (SF-295): 23.3 µM (inactive) | GI50 (HCT-116): 17.6 µM (inactive) | GI50 (SF-539): 28.6 µM (inactive) | GI50 (MDA-N): 20.8 µM (inactive) | GI50 (SN12C): 17.4 µM (inactive) | GI50 (NCI-H460): 30.3 µM (inactive) | GI50 (NCI/ADR-RES): 44.4 µM (inactive) | GI50 (HOP-62): 17.4 µM (inactive) | GI50 (A549): 40.7 µM (inactive) | GI50 (OVCAR-3): 18.4 µM (inactive) | GI50 (Malme-3M): 31.1 µM (inactive) | GI50 (MDA-MB-435): 21.5 µM (inactive) | GI50 (CAKI-1): 44.5 µM (inactive) | GI50 (T47D): 25.3 µM (inactive) | GI50 (KM12): 19.8 µM (inactive) | GI50 (SW-620): 24.6 µM (inactive) | GI50 (786-0): 18.4 µM (inactive) | GI50 (SK-MEL-28): 27.9 µM (inactive) | GI50 (NCI-H23): 21.4 µM (inactive) | GI50 (OVCAR-8): 19.9 µM (inactive) | GI50 (UACC-62): 19.5 µM (inactive) | GI50 (SNB-75): 44.5 µM (inactive) | GI50 (COLO 205): 20.9 µM (inactive) | GI50 (TK-10): 27.1 µM (inactive) | GI50 (M14): 31.6 µM (inactive) | GI50 (MOLT-4): 17.9 µM (inactive) | GI50 (SK-MEL-5): 19.1 µM (inactive) | GI50 (RPMI-8226): 20.4 µM (inactive) | GI50 (HOP-92): 22.1 µM (inactive) | GI50 (HL-60): 21.7 µM (inactive) | GI50 (BT-549): 19.7 µM (inactive) | GI50 (SNB-19): 25 µM (inactive) | GI50 (RXF 393): 21.3 µM (inactive) | GI50 (HCC 2998): 14 µM (inactive) | GI50 (HCT-15): 18.9 µM | GI50 (IGROV-1): 18.5 µM (inactive) | GI50 (LOX IMVI): 18.9 µM (inactive)

CC1(C)CC(=O)c2c(nc3c(ccc4ccccc43)c2-c2ccc(NC(=O)CCC(=O)Nc3ccc(-c4c5c(nc6c4ccc4ccccc46)CC(C)(C)CC5=O)cc3)cc2)C1
GI50 (NCI-H522): > 100 µM (inactive) | GI50 (K562): > 100 µM (inactive) | GI50 (UACC-257): > 100 µM (inactive) | GI50 (ACHN): > 100 µM (inactive) | GI50 (MCF7): > 100 µM (inactive) | GI50 (U-251): > 100 µM (inactive) | GI50 (Hs-578T): > 100 µM (inactive) | GI50 (UO-31): > 100 µM (inactive) | GI50 (EKVX): 95.3 µM (inactive) | GI50 (CCRF-CEM): > 100 µM (inactive) | GI50 (SF-268): > 100 µM (inactive) | GI50 (OVCAR-5): > 100 µM (inactive) | GI50 (SK-OV-3): > 100 µM (inactive) | GI50 (SK-MEL-2): > 100 µM (inactive) | GI50 (MDA-MB-231): > 100 µM (inactive) | GI50 (HT-29): > 100 µM (inactive) | GI50 (PC-3): > 100 µM (inactive) | GI50 (SR): > 100 µM (inactive) | GI50 (DU-145): > 100 µM (inactive) | GI50 (SF-295): > 100 µM (inactive) | GI50 (HCT-116): > 100 µM (inactive) | GI50 (SF-539): > 100 µM (inactive) | GI50 (MDA-N): > 100 µM (inactive) | GI50 (SN12C): > 100 µM (inactive) | GI50 (NCI-H226): > 100 µM (inactive) | GI50 (NCI-H460): > 100 µM (inactive) | GI50 (NCI/ADR-RES): > 100 µM (inactive) | GI50 (HOP-62): > 100 µM (inactive) | GI50 (A549): > 100 µM (inactive) | GI50 (OVCAR-3): > 100 µM (inactive) | GI50 (MDA-MB-435): > 100 µM (inactive) | GI50 (CAKI-1): > 100 µM (inactive) | GI50 (T47D): > 100 µM (inactive) | GI50 (KM12): > 100 µM (inactive) | GI50 (SW-620): > 100 µM (inactive) | GI50 (786-0): > 100 µM (inactive) | GI50 (SK-MEL-28): > 100 µM (inactive) | GI50 (OVCAR-8): > 100 µM (inactive) | GI50 (UACC-62): > 100 µM (inactive) | GI50 (SNB-75): 25 µM (inactive) | GI50 (COLO 205): > 100 µM (inactive) | GI50 (TK-10): > 100 µM (inactive) | GI50 (M14): > 100 µM (inactive) | GI50 (MOLT-4): > 100 µM (inactive) | GI50 (SK-MEL-5): > 100 µM (inactive) | GI50 (RPMI-8226): > 100 µM (inactive) | GI50 (HOP-92): > 100 µM (inactive) | GI50 (HL-60): > 100 µM (inactive) | GI50 (BT-549): > 100 µM (inactive) | GI50 (SNB-19): > 100 µM (inactive) | GI50 (RXF 393): > 100 µM (inactive) | GI50 (HCT-15): > 100 µM | GI50 (IGROV-1): > 100 µM (inactive) | GI50 (LOX IMVI): > 100 µM (inactive)

CCCc1c(O)nc(Nc2nc3ccccc3[nH]2)[nH]c1=O
GI50 (NCI-H522): 71.3 µM (inactive) | GI50 (K562): > 100 µM (inactive) | GI50 (UACC-257): > 100 µM (inactive) | GI50 (ACHN): > 100 µM (inactive) | GI50 (U-251): > 100 µM (inactive) | GI50 (Hs-578T): > 100 µM (inactive) | GI50 (UO-31): > 100 µM (inactive) | GI50 (EKVX): > 100 µM (inactive) | GI50 (CCRF-CEM): 86.5 µM (inactive) | GI50 (SF-268): > 100 µM (inactive) | GI50 (OVCAR-5): > 100 µM (inactive) | GI50 (OVCAR-4): > 100 µM (inactive) | GI50 (SK-OV-3): > 100 µM (inactive) | GI50 (SK-MEL-2): > 100 µM (inactive) | GI50 (MDA-MB-231): > 100 µM (inactive) | GI50 (HT-29): > 100 µM (inactive) | GI50 (PC-3): > 100 µM (inactive) | GI50 (SR): > 100 µM (inactive) | GI50 (DU-145): > 100 µM (inactive) | GI50 (SF-295): > 100 µM (inactive) | GI50 (HCT-116): > 100 µM (inactive) | GI50 (SF-539): > 100 µM (inactive) | GI50 (MDA-N): > 100 µM (inactive) | GI50 (SN12C): > 100 µM (inactive) | GI50 (NCI-H226): > 100 µM (inactive) | GI50 (NCI-H460): > 100 µM (inactive) | GI50 (NCI/ADR-RES): > 100 µM (inactive) | GI50 (A549): > 100 µM (inactive) | GI50 (A498): > 100 µM (inactive) | GI50 (Malme-3M): > 100 µM (inactive) | GI50 (MDA-MB-435): > 100 µM (inactive) | GI50 (CAKI-1): > 100 µM (inactive) | GI50 (T47D): > 100 µM (inactive) | GI50 (KM12): > 100 µM (inactive) | GI50 (SW-620): > 100 µM (inactive) | GI50 (786-0): > 100 µM (inactive) | GI50 (NCI-H23): > 100 µM (inactive) | GI50 (OVCAR-8): > 100 µM (inactive) | GI50 (UACC-62): > 100 µM (inactive) | GI50 (SNB-75): > 100 µM (inactive) | GI50 (COLO 205): > 100 µM (inactive) | GI50 (TK-10): > 100 µM (inactive) | GI50 (M14): > 100 µM (inactive) | GI50 (MOLT-4): > 100 µM (inactive) | GI50 (SK-MEL-5): > 100 µM (inactive) | GI50 (RPMI-8226): > 100 µM (inactive) | GI50 (HOP-92): > 100 µM (inactive) | GI50 (HL-60): 84.9 µM (inactive) | GI50 (BT-549): > 100 µM (inactive) | GI50 (SNB-19): > 100 µM (inactive) | GI50 (RXF 393): > 100 µM (inactive) | GI50 (HCT-15): > 100 µM | GI50 (IGROV-1): > 100 µM (inactive)
